# Key:
# [1] = system: Therminator IX DNA polymerase; assay: Polymerase extension reaction with 3′-O-modified reversible terminators, MALDI-TOF MS readout; type: biochemical; conditions: extension reactions incl. 1:1 mixtures of two terminators, MALDI-TOF MS (FIGS. 23A-28C)
# Procedure: The reaction was conducted in an ABI GeneAmp PCR System 9700 with initial incubation at 65° C. for 30 second, followed by 38 cycles of 65° C./30 sec, 45° C./30 sec, 65° C./30 sec. Multiple reactions were carried out and an aliquot of the reaction mixture was desalted using a C18 ZipTip column (Millipore, MA) and analyzed by MALDI-TOF MS (ABI Voyager DE). Polymerase extension reaction using 3'-O-SS-Rox-dATP for 5, 10, and 30 cycles. […] The reactions were conducted in an ABI GeneAmp PCR System 9700 with initial incubation at 65° C. for 30 second, followed by 5, 10, or 30 cycles of 65° C./30 sec, 45° C./30 sec, 65° C./30 sec. The reaction mixtures were desalted using Oligo Clean & ConcentratorTM (ZYMO Research) and analyzed by MALDI-TOF MS (ABI Voyager DE) and the results are shown in FIGS. 23A-23B. DNA template: [NT] ID NO:6). […] The reaction mixtures were desalted using Oligo Clean & ConcentratorTM (ZYMO Research) and analyzed by MALDI-TOF MS (ABI Voyager DE) the result is shown in FIG. 24. […] The reaction mixtures were desalted using Oligo Clean & ConcentratorTM (ZYMO Research) and analyzed by MALDI-TOF MS (ABI Voyager DE) the result is shown in FIGS. 25A-25C. […] The reaction mixtures were desalted using Oligo Clean & ConcentratorTM (ZYMO Research) and analyzed by MALDI-TOF MS (ABI Voyager DE) the result is shown in FIGS. 28A-28C. […]
# DNA polymerase = system: DNA polymerase
# Excerpt: FIGS. 23A-23B. MALDI-TOF mass spectra of DNA extension products from polymerase reactions using 3′-O-Rox-SS-dATP for 5, 10, and 30 cycles.
# FIGS. 25A-25C. MALDI-TOF mass spectrum of DNA extension products from polymerase reactions using a mixture of 3′-O-tButyl-SS-dATP and 3′-O-Rox-SS-dATP at a 1:1 ratio. […] FIG. 25B: 3′-O-tButyl-SS-dATP (M.W. 625). FIG. 25C: 3′-O-Rox-SS-dATP (M.W. 1157).
# FIG. 26. MALDI-TOF mass spectrum of a DNA extension product from polymerase reaction using 3′-O-TCO-SS-dTTP.
# FIGS. 27A-27B. MALDI-TOF mass spectrum of a DNA extension product from polymerase reaction using 3′-O-Biotin-dCTP.
# FIGS. 28A-28C. MALDI-TOF mass spectrum of DNA extension products from polymerase reaction using with a mixture of 3′-O-Rox-SS-dATP and 3′-O-Rox-PEG4-SS-dATP at a 1:1 ratio.
smiles,measurement,setting,value
"CC(C)(C)SSCO[C@H]1C[C@H](n2cnc3c(N)ncnc32)O[C@@H]1COP(=O)(O)OP(=O)(O)OP(=O)(O)O [3′-O-tButyl-SS-dATP, 3′-O-t-Butyldithiomethyl(SS)-dATP]",incorporation efficiency relative to another nucleotide analogue,[1],much higher efficiency than 3′-O-Rox-SS-dATP
same,extension,DNA polymerase; after 5 cycles of extension,completed
same,efficiency of incorporation by polymerase versus 3′-O-Rox-SS-dATP,DNA polymerase; mixture at a 1:1 ratio,much higher efficiency
same,height of the extension product peak versus that with 3′-O-Rox-SS-dATP,"DNA polymerase; mixture at a 1:1 ratio, after 5 cycles",more than twice
